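Interpolation was linear, between the two tested concentrations surrounding the appropriate level; five concentrations were tested over 48 hours in 96-well plates. GI50: concentration for 50% inhibition of growth.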 Calls of active or inactive are those of the source. Rule as the data show it: active = GI50 up to about 1.1 µM and inactive = higher. Square brackets hold non-standard residues; d marks the D form. Peptide text beside a SMILES is read from it. * marks the point of attachment. X26 = COC1=CC(=O)N(C(=O)[C@@H](O*)C(C)C)[C@H]1Cc1ccccc1; NMeL = CN[C@@H](CC(C)C)C(=O)O; Hexanoyl = CCCCCC(=O)*
How the values were obtained:
Assay in all cases: NCI anticancer screen, dose series, 48 h
[1] = tested on: A549
[2] = tested on: COLO 205
[3] = tested on: DU-145
[4] = tested on: HCC 2998
[5] = tested on: IGROV-1
[6] = tested on: K562
[7] = tested on: KM12
[8] = tested on: MDA-MB-231
[9] = tested on: MDA-MB-435
[10] = tested on: MDA-N
[11] = tested on: NCI-H522
[12] = tested on: NCI/ADR-RES
[13] = tested on: OVCAR-4
[14] = tested on: OVCAR-5
[15] = tested on: SF-295
[16] = tested on: SN12C
[17] = tested on: SNB-75
[18] = tested on: SR
[19] = tested on: TK-10
[20] = tested on: MCF7

Row | Structure (SMILES) | GI50 [1] | GI50 [2] | GI50 [3] | GI50 [4] | GI50 [5] | GI50 [6] | GI50 [7] | GI50 [8] | GI50 [9] | GI50 [10] | GI50 [11] | GI50 [12] | GI50 [13] | GI50 [14] | GI50 [15] | GI50 [16] | GI50 [17] | GI50 [18] | GI50 [19] | GI50 [20]
1 | C[C@]12CC[C@H](O)C[C@@H]1CC[C@@H]1[C@@H]2CC[C@]2(C)[C@@H](C3=CC(=O)OC3)CC[C@]12O | 0.627 µM (active) | 3.18 µM (inactive) | 1.49 µM (inactive) | 3.05 µM (inactive) | 3.26 µM (inactive) | 3.97 µM (inactive) | 5.81 µM (inactive) | 8.89 µM (inactive) | 3.03 µM (inactive) | 2.02 µM (inactive) | 0.719 µM (active) | 2.07 µM (inactive) | 2.08 µM (inactive) | 4.25 µM (inactive) | 2.73 µM (inactive) | 0.964 µM (active) | 3.85 µM (inactive) | > 100 µM (inactive) | 4 µM (inactive) | 
2 | CSc1nnnc2ccccc12 | > 100 µM (inactive) | > 100 µM (inactive) | > 100 µM (inactive) | > 100 µM (inactive) | > 100 µM (inactive) | > 100 µM (inactive) | > 100 µM (inactive) | > 100 µM (inactive) | > 100 µM (inactive) | > 100 µM (inactive) | > 100 µM (inactive) | > 100 µM (inactive) | > 100 µM (inactive) | > 100 µM (inactive) | > 100 µM (inactive) | > 100 µM (inactive) | > 100 µM (inactive) |  | > 100 µM (inactive) | 51.4 µM (inactive)
3 | CCN(CC)C(=S)SS(=O)(=O)c1ccc(C)cc1 |  | 22.3 µM (inactive) | 42.6 µM (inactive) | 36.9 µM (inactive) |  | 28.5 µM (inactive) | 14.2 µM (inactive) | 35.7 µM (inactive) | 31.5 µM (inactive) | 27.9 µM (inactive) | < 0.01 µM (active) | 35.6 µM (inactive) | 43.2 µM (inactive) | > 100 µM (inactive) | 52.7 µM (inactive) | 17.5 µM (inactive) |  |  | > 100 µM (inactive) | 
4 | CCOc1ccccc1/C=C1\NC(=O)N(/C=C2\C(=O)Oc3ccccc3C2=O)C1=O | 42.6 µM (inactive) | 47.4 µM (inactive) | 44.5 µM (inactive) | 74 µM (inactive) | 35.7 µM (inactive) |  | 43 µM (inactive) | 44.6 µM (inactive) | 42.6 µM (inactive) | 42 µM (inactive) | 29.2 µM (inactive) | 46 µM (inactive) | 44.2 µM (inactive) | > 100 µM (inactive) | 44.5 µM (inactive) | 43.6 µM (inactive) | 69.2 µM (inactive) |  | 24.8 µM (inactive) | 46.2 µM (inactive)
5 | Cc1ccc2c(c1C)CC1(Cc3c(C)ccc(C)c3C1=O)C2=O (centres undefined) | > 100 µM (inactive) | > 100 µM (inactive) | > 100 µM (inactive) | > 100 µM (inactive) | > 100 µM (inactive) | > 100 µM (inactive) | > 100 µM (inactive) | > 100 µM (inactive) | > 100 µM (inactive) | > 100 µM (inactive) | > 100 µM (inactive) | > 100 µM (inactive) | > 100 µM (inactive) | > 100 µM (inactive) | > 100 µM (inactive) | > 100 µM (inactive) | > 100 µM (inactive) |  | > 100 µM (inactive) | > 100 µM (inactive)
6 | COc1cc(/C=C2/C(=O)N/C(=N\C(C)=O)N2C)ccc1OC(C)=O | > 100 µM (inactive) | > 100 µM (inactive) | > 100 µM (inactive) | > 100 µM (inactive) | > 100 µM (inactive) |  | > 100 µM (inactive) | > 100 µM (inactive) | > 100 µM (inactive) | > 100 µM (inactive) |  | > 100 µM (inactive) | > 100 µM (inactive) | > 100 µM (inactive) | > 100 µM (inactive) | > 100 µM (inactive) | > 100 µM (inactive) |  | 47.9 µM (inactive) | > 100 µM (inactive)
7 | COc1ccc(C=C2C(C)=NN(c3cccc(Cl)c3)C23C(Cl)C(=O)N3c2nc3ccccc3s2)cc1 (centres undefined) |  |  | 17.5 µM (inactive) | 3 µM (inactive) | 16.4 µM (inactive) | 22.8 µM (inactive) | 13.6 µM (inactive) | 12.9 µM (inactive) | 16.5 µM (inactive) | 19.9 µM (inactive) | 8.53 µM (inactive) | 20.3 µM (inactive) | 23.9 µM (inactive) | 17.3 µM (inactive) | 22.1 µM (inactive) |  |  | 21.6 µM (inactive) | 26.8 µM (inactive) | 17.5 µM (inactive)
8 | O=C1CSC(c2cccc([N+](=O)[O-])c2)N1c1ccc(-n2c(-c3ccccc3)nc3ccccc3c2=O)cc1 (centres undefined) | > 100 µM (inactive) | > 100 µM (inactive) | > 100 µM (inactive) | 63.7 µM (inactive) | > 100 µM (inactive) | > 100 µM (inactive) | > 100 µM (inactive) | > 100 µM (inactive) | > 100 µM (inactive) | > 100 µM (inactive) | > 100 µM (inactive) | > 100 µM (inactive) | > 100 µM (inactive) | > 100 µM (inactive) | > 100 µM (inactive) | > 100 µM (inactive) |  | 84.3 µM (inactive) | > 100 µM (inactive) | > 100 µM (inactive)
9 | CC1(C)N=C(N)N=C(N)N1c1cccc(OCc2cccc(N)c2)c1 | 7.21 µM (inactive) | 37.8 µM (inactive) | > 86.3 µM (inactive) |  | 3.31 µM (inactive) | 3.17 µM (inactive) | 49.9 µM (inactive) | > 71.4 µM (inactive) | 16.4 µM (inactive) | 6.1 µM (inactive) | 26.4 µM (inactive) | > 100 µM (inactive) | > 69.5 µM (inactive) | 26.9 µM (inactive) | > 79.6 µM (inactive) | 19 µM (inactive) | > 100 µM (inactive) |  | > 52.1 µM (inactive) | 39.9 µM (inactive)
10 | COC(=O)C(O)P(=O)(OC)OC (centres undefined) | > 100 µM (inactive) | > 100 µM (inactive) | > 100 µM (inactive) |  | > 100 µM (inactive) | > 100 µM (inactive) | > 100 µM (inactive) | > 100 µM (inactive) | > 100 µM (inactive) | > 100 µM (inactive) | > 100 µM (inactive) | > 100 µM (inactive) | > 100 µM (inactive) | > 100 µM (inactive) | > 100 µM (inactive) | > 100 µM (inactive) |  | > 100 µM (inactive) |  | > 100 µM (inactive)
11 | C=C1C(=O)O[C@@H]2[C@@H]3O[C@@H](C[C@@H]13)[C@](C)(O)CC/C=C(\C)CCC[C@@H]2C | 17.4 µM (inactive) | 14.7 µM (inactive) | 14.2 µM (inactive) | 17.7 µM (inactive) | 10.2 µM (inactive) | 4.66 µM (inactive) | 16.3 µM (inactive) | 16.6 µM (inactive) | 7.87 µM (inactive) | 4.75 µM (inactive) | 5.87 µM (inactive) | 10.6 µM (inactive) | 14.5 µM (inactive) | 22 µM (inactive) | 26.4 µM (inactive) | 12 µM (inactive) | 11.8 µM (inactive) |  | 14.4 µM (inactive) | 7.48 µM (inactive)
12 | COc1nc(=O)n(C2CC(N=[N+]=[N-])C(CO)O2)cc1C (centres undefined) | > 100 µM (inactive) |  | > 100 µM (inactive) |  | > 100 µM (inactive) | > 100 µM (inactive) | > 100 µM (inactive) | > 100 µM (inactive) | > 100 µM (inactive) | > 100 µM (inactive) | > 100 µM (inactive) | > 100 µM (inactive) | > 100 µM (inactive) | > 100 µM (inactive) | > 100 µM (inactive) | > 100 µM (inactive) |  | > 100 µM (inactive) | > 100 µM (inactive) | > 100 µM (inactive)
13 | Cc1ccc(S(=O)(=O)NCCN(CCNS(=O)(=O)c2ccc(C)cc2)S(=O)(=O)c2ccc(C)cc2)cc1 | 25.7 µM (inactive) | > 100 µM (inactive) | > 100 µM (inactive) | > 100 µM (inactive) | 84.1 µM (inactive) | > 100 µM (inactive) | > 100 µM (inactive) | > 100 µM (inactive) | 30.8 µM (inactive) | > 100 µM (inactive) | > 100 µM (inactive) | > 100 µM (inactive) | 6.53 µM (inactive) | > 100 µM (inactive) | > 100 µM (inactive) | > 100 µM (inactive) |  | > 100 µM (inactive) | 41.4 µM (inactive) | 81.7 µM (inactive)
14 | c1nc(OCC2CCCCC2)c2nc[nH]c2n1 | 66.4 µM (inactive) | 32 µM (inactive) | 73.8 µM (inactive) | > 100 µM (inactive) | 46.5 µM (inactive) | 99.8 µM (inactive) | 54.1 µM (inactive) | 63.2 µM (inactive) | 46.7 µM (inactive) | 28.2 µM (inactive) | 44.4 µM (inactive) | 61.4 µM (inactive) | > 100 µM (inactive) | 62.7 µM (inactive) | 50.9 µM (inactive) | 57.8 µM (inactive) | 51.4 µM (inactive) |  | > 100 µM (inactive) | 
15 | CCCCCC(=O)N[C@H](C(=O)N[C@H](C(=O)N(C)[C@@H](CC(C)C)C(=O)N1CCC[C@H]1C(=O)N1CCC[C@H]1C(=O)O[C@H](C(=O)N1C(=O)C=C(OC)[C@@H]1Cc1ccccc1)C(C)C)C(C)C)C(C)C (Hexanoyl-VV[NMeL]PP-X26) | 18.1 µM (inactive) | 32.5 µM (inactive) | > 43.8 µM (inactive) | > 74.3 µM (inactive) | > 44.2 µM (inactive) | 10.3 µM (inactive) | > 74.3 µM (inactive) | > 64.9 µM (inactive) | 47.9 µM (inactive) | 28.3 µM (inactive) | > 100 µM (inactive) | > 100 µM (inactive) | > 76.9 µM (inactive) | > 100 µM (inactive) | > 100 µM (inactive) | 35.6 µM (inactive) | 19.5 µM (inactive) |  | > 100 µM (inactive) | 25.9 µM (inactive)
